The source of these data is ChEMBL document CHEMBL3392922, “MMV box screening in the Dd2 P. falciparum strain”.

As a reminder, the IC50 is the concentration at which inhibition is half-maximal.

In this assay the test system is Plasmodium falciparum. As to the kind of experiment: MMV: IC50 determined against P. falciparum Dd2-luc strain using a Malaria Sybr Green I Fluorescence assay. Starting conditions were 1% trophozoite synchronised parasites at 2% haematocrit. Fluorescence detection completed after 48hr incubation at 37 degrees C under 1% O2, 3% CO2 and balance N2. It counts as functional, organism-based. As to conditions: Dd2, 48 h.
For `COc1ccccc1N1C(=N)SC(=Cc2ccc(OCc3ccccc3F)cc2)C1=O`, half-maximal inhibition (IC50) required 809 nM. The result for `CCCCOc1ccc(C(=O)Nc2cc(C)on2)cc1` reads 783 nM; that for `Oc1c(CN2CCN(c3ccccc3F)CC2)cc(Br)c2cccnc12`, 1340 nM; that for `CCOc1ccc(Nc2c3ccccc3nc3ccccc23)cc1`, 1670 nM.

Regarding `CN(C)CCCNc1c2ccccc2nc2ccccc12`, the IC50 was determined as 237 nM.

Compound `CCn1c(SCC(=O)Nc2cc(C(F)(F)F)ccc2Cl)nc2ccccc2c1=O` registered an IC50 of 903 nM. Next, `Oc1ccccc1CN1CCC2(CCCN(Cc3ccccc3F)C2)C1` (stereo not drawn): 647 nM; `COc1ccc(C2c3ccc4ccccc4c3Oc3ncn(CCCN(C)C)c(=N)c32)cc1` (stereo not drawn): 443 nM; `COc1cccc(Nc2nc(N)c3ccccc3n2)c1`: 3110 nM. Next, `O=C(Nc1ccc(F)c(Cl)c1)Nc1ccc(Cl)c(Cl)c1`: 1830 nM. Take `CC1(c2ccccc2)Nc2ccccc2-c2nc3ccccc3n21` (stereo not drawn): inhibition was half-maximal at 263 nM (IC50). The result for `CCOc1ccc(N2C(N)=NC(N)=NC2(C)C)cc1` reads 8130 nM. Regarding `CCN1CCCC1CNc1[nH]cnc2c3cc(Cl)ccc3nc1-2` (stereo not drawn), it took 1450 nM to reach half-maximal inhibition (IC50). For `Cc1cccc(N2C(=O)C3C(C2=O)C2(c4ccccc4)C(=O)C3(c3ccccc3)C(c3ccc4c(c3)OCO4)=C2c2ccc3c(c2)OCO3)c1` (stereo not drawn), 1700 nM corresponded to half-maximal inhibition (IC50).

The compound `OC(CNC1CCCCC1)Cn1c2ccccc2c2ccccc21` (stereo not drawn) had an IC50 of 278 nM. Against the preceding compound, the IC50 is about 6.1-fold lower. The result for `O=C(NCCCN1CCC(N2CCCCC2)CC1)C1=Cc2cc(Br)ccc2OC1` reads 965 nM; that for `COc1ccc(C2C(C(=O)Nc3cccc(OC)c3)c3ccccc3C(=O)N2C2CCCCC2)cc1` (stereo not drawn), 2340 nM; that for `COc1ccc(-c2nonc2NC(=O)c2cccc(Cl)c2)cc1OC`, 1330 nM. Take `O=c1cc(NC2CCN(CCCc3ccccc3)CC2)c2cc(Cl)ccc2o1`: the IC50 is 543 nM. This IC50 is about 2.4-fold lower than that of the compound before. The result for `CCOc1cc2c(cc1OCC)C(c1cc(C)c(O)c(C)c1)NCC2` (stereo not drawn) reads 654 nM. For the compound `CCCCCn1c(=N)n(CC(O)COc2cccc(C)c2)c2ccccc21` (stereo not drawn), the IC50 was found to be 2350 nM. Compound `O=C(NC1CCCC1)c1ccc(N2CCC(NCc3cccc(C(F)(F)F)c3)CC2)cc1` displayed an IC50 of 468 nM. The result for `COc1ccc2nc(C)cc(Nc3ccc(Cl)cc3)c2c1` reads 1180 nM; that for `Cc1ccc(CN2CCC(C(=O)Nc3ccc(-c4cc5ccccc5[nH]4)cc3)CC2)o1`, 459 nM.

The compound `CCOc1ccc(Nc2ccnc3cc(Cl)ccc23)cc1` gave an IC50 of 768 nM. `CN(C)c1ccc(C(O)(c2ccc(N(C)C)cc2)c2ccc(N(C)C)cc2)cc1` [METHYLROSANILINE] yielded an IC50 of 218 nM. Compared with the last compound, the IC50 is about 3.5-fold lower. For the compound `COc1ccc(C(=O)Nc2ccc(Cl)cc2C(=O)Nc2ccncc2)cc1`, the midpoint of inhibition, the IC50, lay at 810 nM. Next, `OC(Cn1nnc2ccccc21)Cn1c2ccc(Br)cc2c2cc(Br)ccc21` (stereo not drawn): 2030 nM; `CCOC(=O)c1cnc2ccc(OC)cc2c1Nc1ccc(N2CCN(C)CC2)cc1`: 769 nM. Next, `OC(CNCC1CCCO1)Cn1c2ccc(Cl)cc2c2cc(Cl)ccc21` (stereo not drawn): 734 nM. Next, `CC(=O)c1ccc(NC(=O)CSc2nc(-c3ccccc3Cl)ns2)cc1`: 1690 nM; `CCCc1c(C)nc2ccccc2c1O`: 637 nM; `COc1ccc(C(=O)Nc2ccc3nc(N4CCCCC4)cc(C)c3c2)cc1OC`: 614 nM. As to `CCOc1ccc(-c2nonc2NC(=O)c2cccc(C)c2)cc1OCC`, it took 154 nM to reach half-maximal inhibition (IC50). This IC50 lies about 4-fold lower than the previous one. `COc1ccc(C(=O)C(CCC(CNC(C)(C)C)C(=O)c2ccc(OC)cc2)CNC(C)(C)C)cc1` (stereo not drawn) returned an IC50 of 1600 nM. Next, `CCc1ccc(Nc2cc(C)nc3nc(C)nn23)cc1`: 691 nM; `CCCOCc1cc(CN2CCN(c3cccc(Cl)c3)CC2)c(O)c2ncccc12`: 961 nM; `CCOc1cc(Cl)c(C(C)NC(=O)c2ccccc2)cc1OCC` (stereo not drawn): 828 nM. Next, `Cc1ccc(CSCc2ccc(C(=O)NC3CC3)o2)cc1`: 550 nM; `CCOC(=O)c1cnc2ccc(Cl)cc2c1NCCCN(C)C`: 1180 nM; `Cn1c(=O)n(C)c2cc(CNCCNc3ccnc4cc(Cl)ccc34)ccc21`: 197 nM.

`CCOC(=O)c1c(NC(=O)c2ccccc2)sc2c(O)c(CN(CC)CC)ccc12` showed an IC50 of 127 nM. Against the preceding compound, the IC50 is about 1.6-fold lower. Next, `Cc1ccc(OCCCCCCNCCO)c(C)c1`: 2480 nM; `CCOc1cc2c(cc1OCC)C(c1cc(Cl)c(O)c(OCC)c1)NCC2` (stereo not drawn): 1610 nM.

Regarding `CCC(=O)Nc1nnc(Cc2ccc(OC)c(OC)c2)s1`, it took 704 nM to reach half-maximal inhibition (IC50). For `CCCCCCc1cc(O)c2c3c(c(=O)oc2c1)CCC(C)C3` (stereo not drawn), the IC50 worked out at 568 nM. The result for `CCc1ccc(Nc2cc(C)c3ccc(O)cc3n2)cc1` reads 316 nM; that for `Cc1c(C)n(CC(O)CNC2CCCCC2C)c2ccccc12` (stereo not drawn), 484 nM; that for `Cc1cc(NC(=O)C2c3ccccc3C(=O)N(CC(C)C)C2c2cccs2)no1` (stereo not drawn), 160 nM.

Turning to `CCN(CC)CCCNc1nc(-c2ccc(Cl)cc2)nc2ccccc12`, the IC50 stood at 425 nM. Turning to `CCc1c(C)c(=N)c2ccccc2n1C`, half-maximal inhibition (IC50) was put at 2770 nM. With `COc1ccc(N2CCN(C(CNC(=O)C3CCCCC3)c3ccc4c(c3)OCO4)CC2)cc1` (stereo not drawn), half-maximal inhibition (IC50) was put at 569 nM. The result for `COc1ccc(CN2CCCC(C(=O)c3ccc(C(F)(F)F)cc3)C2)c(O)c1` (stereo not drawn) reads 635 nM; that for `O=C(Nc1ccc(N2CCCCC2)c(Cl)c1)c1ccc(Br)o1`, 559 nM. `COc1ccc(CCn2c(=N)c(C(=O)NCc3cccnc3)cc3c(=O)n4cccc(C)c4nc32)cc1` yielded an IC50 of 272 nM. Consider `CCOc1ccc(C2N(C)c3ccccc3N2C)cc1`, for which the IC50 is 904 nM. Next, `Cc1cccc(Nc2nc(N)c3ccccc3n2)c1`: 3500 nM. Next, `CCOc1ccc(/C=C/c2nc(=O)c3ccccc3o2)cc1`: 740 nM. In turn, `CCCN(CCC)CCCNC(=O)c1cc2c(-c3ccc(OC)c(OC)c3)nn(C)c2s1` returned an IC50 of 1160 nM. This IC50 is about 1.6-fold higher than that of the compound before. The compound `CC(C)CNC(=O)c1c(N)n(CCc2ccccc2F)c2nc3ccccc3nc12` had an IC50 of 680 nM.

Regarding `Oc1ccc(-c2nc(-c3ccc4oc5ccc(-c6[nH]c(-c7ccc(O)cc7)nc6-c6ccccc6)cc5c4c3)c(-c3ccccc3)[nH]2)cc1`, 683 nM corresponded to half-maximal inhibition (IC50). Next, `COc1nc(Nc2ccc(C(C)C)cc2)nc(OC)n1`: 365 nM; `CCOC(=O)C1(Cc2ccccc2)CCN(Cc2cccc(OC)c2O)CC1`: 2200 nM. On to `O=c1nc(C=Cc2ccc(Cl)cc2)oc2ccccc12`, for which the IC50 was 1190 nM. The result for `COc1cccc(NC(=O)Cn2c(C)c(C#N)c3ccccc32)c1` reads 1270 nM; that for `COc1cccc(C2(C)Nc3ccccc3-c3nc4ccccc4n32)c1` (stereo not drawn), 1410 nM. `Nc1ccc(-c2nc3cc(Cc4ccc5[nH]c(-c6ccc(N)cc6)nc5c4)ccc3[nH]2)cc1`: the IC50 was 1820 nM. The compound `O=C(Nc1ccc(N2CCN(Cc3ccccc3)CC2)cc1)c1cccs1` came in with an IC50 of 742 nM. Compared with the last compound, the IC50 is about 2.5-fold lower.

Take `Cc1ccc(Cn2c(N3CCC(C(=O)NCc4cccs4)CC3)nc3ccccc32)cc1`: the IC50 is 826 nM. The IC50 values of the last two compounds are within 1.5-fold of each other. The result for `FC(F)(F)c1ccc(Nc2nnnc3ccccc23)cc1` reads 3990 nM. Next, `COCCNC(=O)c1ccc(OC2CCN(Cc3ccc(F)c(F)c3)CC2)c(Cl)c1`: 754 nM; `O=C(c1ccccc1F)N(Cc1ccc(Cl)cc1)c1ccccn1`: 1190 nM. For `CC(C)(C)c1ccc(C2CC3=Nc4ccccc4N(C(=O)c4ccccc4Cl)C(c4ccc(F)cc4)C3=C(O)C2)cc1` (stereo not drawn), the IC50 turned out to be 1990 nM. The result for `Cc1ccc(-c2cc3c(nn2)-c2ccccc2C3=O)cc1` reads 1260 nM. The compound `Brc1ccc(Nc2nc3ccccc3nc2Nc2ccc(Br)cc2)cc1` gave an IC50 of 1510 nM.

The compound `O=C(Nc1ccc(Cl)cc1C(=O)Nc1ccncc1)c1ccc(Cl)cc1Cl` yielded an IC50 of 866 nM. Compared with the last compound, the IC50 is about 1.7-fold lower. The result for `COc1ccc(CCN2C(=O)c3[nH]nc(-c4cc(Cl)c(C)cc4O)c3C2c2ccccc2F)cc1` (stereo not drawn) reads 3190 nM; that for `O=C(Nc1cccc(C(F)(F)F)c1)c1cc(Cl)ccc1O`, 1090 nM; that for `CCCN(CCC)CC(O)COc1ccccc1C(=O)Nc1ccccc1` (stereo not drawn), 209 nM. In turn, `CCCCNCC(O)(c1ccc(Cl)cc1)c1ccc(Cl)cc1` returned a 50% inhibitory concentration (IC50) of 420 nM.

Compound `Cc1ccc(Nc2nc(-c3ccccn3)cs2)cc1` gave an IC50 of 479 nM. In turn, `CCCCCC(=O)N1c2ccccc2N=C2CC(c3ccc(OC)c(OC)c3)CC(O)=C2C1c1ccc(C(F)(F)F)cc1` (stereo not drawn) showed a half-maximal inhibitory concentration (IC50) of 179 nM.

As for `Cc1ccc(F)cc1NC(=O)c1cc(Cl)ccc1Nc1ccccc1`, the half-inhibitory concentration (IC50) came to 558 nM. Consider `CCOc1cc(Br)c(C(C)NC(=O)c2cccc(OC)c2)cc1OCC` (stereo not drawn), for which half-maximal inhibition (IC50) was put at 1440 nM. The result for `CCOc1cc2c(cc1OCC)C(c1cc(Cl)ccc1O)NCC2` (stereo not drawn) reads 1700 nM; that for `CCOc1ccccc1CNC(=O)C1c2ccccc2C(=O)N(CC(C)C)C1c1cccs1` (stereo not drawn), 1220 nM. Take `CC1CCCCN1CCCNC(=O)c1ccc2c(c1)sc1nc(-c3ccc(F)cc3)cn12` (stereo not drawn): the IC50 came out at 559 nM. The result for `COc1cc2c(cc1OC)C1=NNC(=O)C1=NC(C)(C)C2` reads 732 nM; that for `COc1ccc(CCN2CCC(CN(C)Cc3cnn(-c4ccccc4)c3)CC2)cc1`, 2680 nM; that for `CCOC(=O)C1=C(C)N=c2sc(=Cc3cc(Cl)ccc3O)c(=O)n2C1c1ccc(OC)cc1` (stereo not drawn), 527 nM. `CCN(CC)c1ccc(NC(=O)c2cccs2)cc1`: the IC50 amounted to 514 nM. The result for `O=[N+]([O-])c1ccc(C=NNc2nc3ccccc3[nH]2)cc1` reads 242 nM; that for `COc1ccc(C2Sc3ccccc3N=C3C2=C(O)c2ccccc23)cc1` (stereo not drawn), 723 nM. The compound `COc1ccccc1CNC(=O)C1c2ccccc2C(=O)N(CC(C)C)C1c1cccs1` (stereo not drawn) yielded a half-maximal inhibitory concentration (IC50) of 1140 nM. Next, `CCOc1c(Cl)cc(CNC(C)C(O)c2ccccc2)cc1OC` (stereo not drawn): 1360 nM; `OC(CNC1CCCC1)Cn1c2ccccc2c2ccccc21` (stereo not drawn): 453 nM; `Cc1sc(NC(=O)c2ccco2)c(C(c2cccnc2)N2CCC(Cc3ccccc3)CC2)c1C` (stereo not drawn): 1340 nM.

Compound `COc1cc(C(=O)ON=C(N)Cc2cccc3ccccc23)cc(OC)c1OC` registered a concentration for half-maximal inhibition (IC50) of 3940 nM. This IC50 lies about 2.9-fold higher than the previous one.
